Measurements taken from US8853250B2, “Sodium channel inhibitors” (Icagen, Inc., priority 2007, dated 2014).
Where two headings read alike, the source gives them in different places.

Tests used:
hSCN3A = molecular target: T1, hSCN3A (Homo sapiens, UniProt Q9NY46); assay: Whole-cell patch-clamp electrophysiology, hSCN3A in HEK cells; assay type: cell-based
T1 construct: expressed in transfected cells
Protocol: (§1) Human Embryonic Kidney (HEK) cells were transfected with hSCN3A or hSCN9A constructs using lipofectamine reagent (Invitrogen), using standard techniques. […] Clones were screened for expression using the whole-cell voltage-clamp technique.
(§2) HEK cells stably transfected with hSCN3A or hSCN9A were maintained in DMEM medium supplemented with 10% heat-inactivated fetal bovine serum and 400 μg/ml G418 sulfate in an incubator at 37° C. with a humidified atmosphere of 10% CO2. […] For electrophysiological studies, cells were removed from the culture flask by brief trypsinization and replated at low density onto glass cover slips. Cells were typically used for electrophysiological experiments within 24 to 72 h after plating. […]
(§3) The voltage-dependence of inactivation was determined by applying a series of depolarizing prepulses (8 sec long in 10 mV increments) from a negative holding potential. […] Cells were then voltage clamped at the empirically determined V1/2.
(§4) Compounds were tested for their ability to inhibit hSCN3A or hSCN9A sodium channels by activating the channel with a 20 msec voltage step to 0 mV following an 8 second conditioning prepulse to the empirically determined V1/2 (Table B). Compound effect (% inhibition) was determined by difference in current amplitude before and after application of test compounds. […]

hSCN9A = molecular target: T2, hSCN9A (Homo sapiens, UniProt Q15858); assay: Whole-cell patch-clamp electrophysiology, hSCN9A in HEK cells; assay type: cell-based
T2 construct: expressed in transfected cells
Protocol: as §1, §2, §3, §4

Nav1.3 = Nav1.3 (Homo sapiens, UniProt Q9NY46); conditions: read-out: TTX IC-50; cited from earlier work
Nav1.6 = Nav1.6 (Homo sapiens, UniProt Q9UQD0); conditions: read-out: TTX IC-50; cited from earlier work
Nav1.8 = Nav1.8 (Homo sapiens, UniProt Q9Y5Y9); conditions: read-out: TTX IC-50; cited from earlier work
Nav1.9 = Nav1.9 (Homo sapiens, UniProt Q9UI33); conditions: read-out: TTX IC-50; cited from earlier work
Nav1.1 = Nav1.1 (Homo sapiens, UniProt P35498); conditions: read-out: TTX IC-50; cited from earlier work
Nav1.2 = Nav1.2 (Homo sapiens, UniProt Q99250); conditions: read-out: TTX IC-50; cited from earlier work

T2 sequence (Q15858 whole entry): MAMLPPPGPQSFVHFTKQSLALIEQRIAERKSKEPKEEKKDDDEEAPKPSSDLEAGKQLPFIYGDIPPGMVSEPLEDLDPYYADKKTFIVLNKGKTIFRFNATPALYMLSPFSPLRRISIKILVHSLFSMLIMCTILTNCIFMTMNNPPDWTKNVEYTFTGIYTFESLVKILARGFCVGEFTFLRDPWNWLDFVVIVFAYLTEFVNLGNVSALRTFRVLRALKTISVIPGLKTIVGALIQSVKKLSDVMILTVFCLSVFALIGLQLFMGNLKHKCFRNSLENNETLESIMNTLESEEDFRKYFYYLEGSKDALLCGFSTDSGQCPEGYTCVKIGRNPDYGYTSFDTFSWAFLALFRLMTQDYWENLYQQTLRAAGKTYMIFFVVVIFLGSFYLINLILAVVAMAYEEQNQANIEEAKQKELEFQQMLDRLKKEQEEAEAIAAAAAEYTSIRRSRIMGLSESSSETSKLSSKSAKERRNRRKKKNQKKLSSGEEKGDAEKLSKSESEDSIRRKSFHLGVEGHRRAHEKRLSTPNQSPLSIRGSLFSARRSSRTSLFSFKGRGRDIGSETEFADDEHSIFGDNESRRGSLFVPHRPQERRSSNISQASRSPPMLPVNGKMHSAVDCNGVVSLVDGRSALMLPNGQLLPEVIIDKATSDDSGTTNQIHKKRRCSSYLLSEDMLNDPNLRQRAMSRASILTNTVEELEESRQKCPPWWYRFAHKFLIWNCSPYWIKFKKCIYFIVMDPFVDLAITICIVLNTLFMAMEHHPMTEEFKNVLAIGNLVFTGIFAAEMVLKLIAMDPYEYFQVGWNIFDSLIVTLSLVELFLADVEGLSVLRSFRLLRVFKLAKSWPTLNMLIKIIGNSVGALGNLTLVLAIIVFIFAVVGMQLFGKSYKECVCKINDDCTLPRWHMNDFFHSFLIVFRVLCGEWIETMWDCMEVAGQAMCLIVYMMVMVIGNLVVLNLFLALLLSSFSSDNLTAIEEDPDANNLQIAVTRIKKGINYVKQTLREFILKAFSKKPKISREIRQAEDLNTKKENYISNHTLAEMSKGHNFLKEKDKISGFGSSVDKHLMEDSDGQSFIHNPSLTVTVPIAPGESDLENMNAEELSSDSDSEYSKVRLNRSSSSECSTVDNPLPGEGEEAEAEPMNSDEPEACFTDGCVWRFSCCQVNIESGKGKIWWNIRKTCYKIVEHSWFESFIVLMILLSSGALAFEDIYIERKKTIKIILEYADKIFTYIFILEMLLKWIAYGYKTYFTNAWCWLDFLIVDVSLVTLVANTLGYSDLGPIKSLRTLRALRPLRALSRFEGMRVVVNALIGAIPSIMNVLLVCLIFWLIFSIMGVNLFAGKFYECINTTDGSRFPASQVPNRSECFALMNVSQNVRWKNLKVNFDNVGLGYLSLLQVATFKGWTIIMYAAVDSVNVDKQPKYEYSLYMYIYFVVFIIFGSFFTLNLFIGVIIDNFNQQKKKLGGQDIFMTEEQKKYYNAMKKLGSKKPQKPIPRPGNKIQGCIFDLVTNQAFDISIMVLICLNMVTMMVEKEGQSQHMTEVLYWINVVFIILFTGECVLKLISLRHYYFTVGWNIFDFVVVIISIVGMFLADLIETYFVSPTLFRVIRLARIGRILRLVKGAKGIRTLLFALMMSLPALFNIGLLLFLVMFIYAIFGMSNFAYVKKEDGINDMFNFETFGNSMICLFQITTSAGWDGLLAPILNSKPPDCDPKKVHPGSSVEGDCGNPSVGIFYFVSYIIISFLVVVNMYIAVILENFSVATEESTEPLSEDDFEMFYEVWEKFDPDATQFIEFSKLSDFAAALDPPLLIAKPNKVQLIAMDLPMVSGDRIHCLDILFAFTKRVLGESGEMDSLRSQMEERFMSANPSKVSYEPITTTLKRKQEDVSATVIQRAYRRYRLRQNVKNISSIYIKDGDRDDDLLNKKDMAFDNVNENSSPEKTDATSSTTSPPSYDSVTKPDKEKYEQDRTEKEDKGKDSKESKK
T1 sequence (Q9NY46 whole entry): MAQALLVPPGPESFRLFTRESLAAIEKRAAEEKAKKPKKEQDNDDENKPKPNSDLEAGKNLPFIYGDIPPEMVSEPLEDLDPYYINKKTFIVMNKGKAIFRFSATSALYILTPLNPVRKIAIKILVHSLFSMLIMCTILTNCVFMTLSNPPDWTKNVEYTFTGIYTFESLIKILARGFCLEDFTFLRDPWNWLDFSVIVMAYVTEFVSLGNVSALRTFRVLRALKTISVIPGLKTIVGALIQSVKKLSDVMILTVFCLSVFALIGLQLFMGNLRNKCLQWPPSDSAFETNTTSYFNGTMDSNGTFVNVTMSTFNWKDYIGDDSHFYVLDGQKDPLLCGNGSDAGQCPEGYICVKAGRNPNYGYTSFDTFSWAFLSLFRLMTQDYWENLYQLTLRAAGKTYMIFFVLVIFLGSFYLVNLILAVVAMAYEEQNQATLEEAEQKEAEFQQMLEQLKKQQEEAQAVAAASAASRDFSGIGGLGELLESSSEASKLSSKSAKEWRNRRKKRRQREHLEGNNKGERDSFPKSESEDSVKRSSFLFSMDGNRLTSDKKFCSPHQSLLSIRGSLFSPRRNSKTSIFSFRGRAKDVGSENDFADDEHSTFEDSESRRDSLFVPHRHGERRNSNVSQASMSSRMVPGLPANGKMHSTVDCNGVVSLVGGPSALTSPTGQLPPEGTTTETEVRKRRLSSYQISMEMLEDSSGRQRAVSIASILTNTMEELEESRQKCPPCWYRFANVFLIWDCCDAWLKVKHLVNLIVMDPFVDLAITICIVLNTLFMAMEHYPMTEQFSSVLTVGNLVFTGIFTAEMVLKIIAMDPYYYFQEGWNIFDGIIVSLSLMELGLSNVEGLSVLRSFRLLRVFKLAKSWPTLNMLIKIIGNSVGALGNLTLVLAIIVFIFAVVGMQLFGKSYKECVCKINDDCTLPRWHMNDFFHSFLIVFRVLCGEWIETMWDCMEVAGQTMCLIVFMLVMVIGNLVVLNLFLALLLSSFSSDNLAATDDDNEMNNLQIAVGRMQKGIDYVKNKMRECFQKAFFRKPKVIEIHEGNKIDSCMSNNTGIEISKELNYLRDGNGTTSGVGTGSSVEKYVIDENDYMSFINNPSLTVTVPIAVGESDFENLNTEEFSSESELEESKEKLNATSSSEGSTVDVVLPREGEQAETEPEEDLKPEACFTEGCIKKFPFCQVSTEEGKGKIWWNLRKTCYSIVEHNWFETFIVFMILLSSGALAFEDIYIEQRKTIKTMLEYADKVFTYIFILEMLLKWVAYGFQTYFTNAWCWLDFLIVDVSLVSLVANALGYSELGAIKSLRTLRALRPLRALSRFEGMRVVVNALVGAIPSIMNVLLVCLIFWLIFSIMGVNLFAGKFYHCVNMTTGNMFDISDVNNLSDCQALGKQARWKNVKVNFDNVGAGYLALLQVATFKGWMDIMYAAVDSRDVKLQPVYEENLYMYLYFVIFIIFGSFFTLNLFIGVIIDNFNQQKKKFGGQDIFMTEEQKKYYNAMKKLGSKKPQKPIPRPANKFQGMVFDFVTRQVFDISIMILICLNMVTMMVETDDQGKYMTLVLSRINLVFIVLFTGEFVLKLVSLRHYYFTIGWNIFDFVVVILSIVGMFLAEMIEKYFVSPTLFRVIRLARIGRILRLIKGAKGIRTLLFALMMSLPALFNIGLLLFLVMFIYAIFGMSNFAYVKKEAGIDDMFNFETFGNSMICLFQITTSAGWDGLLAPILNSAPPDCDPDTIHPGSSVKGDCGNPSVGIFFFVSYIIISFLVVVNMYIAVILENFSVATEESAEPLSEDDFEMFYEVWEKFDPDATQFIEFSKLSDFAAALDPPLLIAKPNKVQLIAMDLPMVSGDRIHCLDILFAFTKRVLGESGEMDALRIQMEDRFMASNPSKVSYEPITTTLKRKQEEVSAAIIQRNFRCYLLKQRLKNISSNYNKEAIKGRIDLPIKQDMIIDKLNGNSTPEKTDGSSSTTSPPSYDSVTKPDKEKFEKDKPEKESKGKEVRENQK
Chain of Nav1.3 (Q9NY46 whole entry, looked up): as the sequence (Q9NY46 whole entry) above

SMILES: O=S(=O)(CCc1ccc(C(F)(F)F)cc1)c1ccc(S(=O)(=O)Nc2nccs2)cc1 [Compound 20, N-(thiazol-2-yl)-4-(4-(trifluoromethyl)phenethylsulfonyl)benzenesulfonamide]
- IC50 (hSCN3A): 160 nM
- IC50 (hSCN9A): > 10000 nM

SMILES: NC1=N[C@H](O)[C@H]2[C@H]3O[C@]4(O)O[C@@H]([C@@H](O)[C@@]2(N1)[C@@H]4O)[C@]3(O)CO [TTX, tetrodotoxin]
- IC50 (Nav1.3): 15 nM
- IC50 (Nav1.6): 6 nM
- IC50 (Nav1.8): 50000 nM
- IC50 (Nav1.9): 1000 nM
- IC50 (Nav1.1): 10 nM
- IC50 (Nav1.2): 10 nM

SMILES: O=S(=O)(Nc1nccs1)c1ccc(S(=O)(=O)c2ccccc2)cc1 [Compound 65, 4-(phenylsulfonyl)-N-(thiazol-2-yl)benzenesulfonamide]
- IC50 (hSCN3A; estimated IC-50 from single point % inhibition, HEK cells, 8 sec prepulse to V1/2, step to 0 mV, read-out: hSCN3A EIC-50): 5000 nM
- IC50 (hSCN9A; estimated IC-50 from single point % inhibition, HEK cells, 8 sec prepulse to V1/2, step to 0 mV, read-out: hSCN9A EIC-50): 2700 nM
